This note sets out measurements from US9242984B2, “Pyrazolyl derivatives as Syk inhibitors” (Merck Sharp & Dohme Corp., priority 2012, dated 2016).

The target of this test is T1, recombinant human Syk (GST-hSyk fusion protein) (Homo sapiens, UniProt P43405).
T1 construct: purchased Carna Biosciences 08-176
Nature of the test: Homogeneous Time-Resolved Fluorescence (HTRF) assay for the recombinant human Syk enzyme. The class given is biochemical. The conditions noted are these: 10-dose titration, 25 μM ATP. Put shortly:
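IC50 came from a four-parameter fit over ten doses, 10 μM to 0.508 nM, with HTRF read-out (Eu-anti-pTyr antibody, SA-APC, EDTA stop, 30 min). The enzyme, 5 pM GST-hSyk, met compound for 10 min, then phosphorylated 250 nM biotin-peptide with 25 μM ATP and 5 mM Mg for 45 min at room temperature, pH 7.5.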
For orientation: In TR-FRET formats the signal depends on donor and acceptor labels being close together.

Where [1] appears, read: IC50 class, read-out: rhSYK Activity.

Read-outs that look alike come from different tables or passages of the source. Bounds are passed on as bounds.

Consider `Cc1cc(Nc2ncc(F)c(C(F)F)n2)cc(-c2cnn(CC(C)(O)CO)c2)c1` (single isomer, unassigned) [Example 25.10, 3-[4-(3-{[4-(difluoromethyl)-5-fluoropyrimidin-2-yl]amino}-5-methylphenyl)-1H-pyrazol-1-yl]-2-methylpropane-1,2-diol], for which the IC50 under setting [1] was at most 100 nM. Take `Cc1cc(Nc2ncccn2)cc(-c2cnn(C(C)c3ccc(C(N)=O)cc3)c2)c1` (single isomer, unassigned) [Example 28.1, 4-(1-(4-(3-Methyl-5-(pyrimidin-2-ylamino)phenyl)-1H-pyrazol-1-yl)ethyl)benzamide]: the IC50 was 57.5 nM (read-out: rhSYK IC50) and at most 100 nM under setting [1]. The like results for `Cc1cc(Nc2ncccn2)cc(-c2cnn(C(C)c3ccc(C(N)=O)cc3)c2)c1` (single isomer, unassigned) [Example 28.2, 4-(1-(4-(3-methyl-5-(pyrimidin-2-ylamino)phenyl)-1H-pyrazol-1-yl)ethyl)benzamide] were, in that order, 7.2 nM and at most 100 nM. The like results for `Cc1cc(Nc2ncccn2)cc(-c2cnn(C3CC(C(N)=O)C3)c2)c1` (single isomer, unassigned) [Example 30.1, 3-(4-(3-Methyl-5-(pyrimidin-2-ylamino)phenyl)-1H-pyrazol-1-yl)cyclobutanecarboxamide] were, in that order, 48.3 nM and at most 100 nM. Take `Cc1cc(Nc2ncccn2)cc(-c2cnn(C3CC(C(N)=O)C3)c2)c1` (single isomer, unassigned) [Example 31.1, 3-(4-(3-Methyl-5-(pyrimidin-2-ylamino)phenyl)-1H-pyrazol-1-yl)cyclobutanecarboxamide]: the IC50 (read-out: rhSYK IC50) worked out at 34.9 nM and the IC50 under setting [1] is at most 100 nM.

In the case of `Cc1cc(Nc2nccc(C(F)F)n2)cc(-c2cnn(CC(O)(CO)C(F)(F)F)c2)c1` (single isomer, unassigned) [Example 32.1, (S or R)-2-((4-(3-((4-(difluoromethyl)pyrimidin-2-yl)amino)-5-methylphenyl)-1H-pyrazol-1-yl)methyl)-3,3,3-trifluoropropane-1,2-diol], the IC50 runs as follows: (read-out: rhSYK IC50) 1.6 nM; under setting [1], at most 100 nM. On to `Cc1cc(Nc2nccc(C(F)F)n2)cc(-c2cnn(CC(O)(CO)C(F)(F)F)c2)c1` (single isomer, unassigned) [Example 32.2, (S or R)-2-((4-(3-((4-(difluoromethyl)pyrimidin-2-yl)amino)-5-methylphenyl)-1H-pyrazol-1-yl)methyl)-3,3,3-trifluoropropane-1,2-diol], for which the IC50 by setting is: (read-out: rhSYK IC50) 3.3 nM; under setting [1], at most 100 nM.

On to `Cc1cc(Nc2nccc(C(F)F)n2)cc(-c2cnn(CC3OC(=O)NC3CO)c2)c1` (single isomer, unassigned) [Example 33.1, 5-{[4-(3-{[4-(difluoromethyl)pyrimidin-2-yl]amino}-5-methylphenyl)-1H-pyrazol-1-yl]methyl}-4-(hydroxymethyl)-1,3-oxazolidin-2-one], for which the IC50 by setting is: (read-out: rhSYK IC50) 1.6 nM; under setting [1], at most 100 nM.

For `Cc1cc(Nc2nccc(C(F)F)n2)cc(-c2cnn(CC3OC(=O)NC3CO)c2)c1` (single isomer, unassigned) [Example 33.2, 5-{[4-(3-{[4-(difluoromethyl)pyrimidin-2-yl]amino}-5-methylphenyl)-1H-pyrazol-1-yl]methyl}-4-(hydroxymethyl)-1,3-oxazolidin-2-one], the IC50 under setting [1] is at most 100 nM. On the same count and under the same terms, then `Cc1cc(Nc2nccc(C(F)F)n2)cc(-c2cnn(CC3OC(=O)NC3CO)c2)c1` (single isomer, unassigned) [Example 33.3, 5-{[4-(3-{[4-(difluoromethyl)pyrimidin-2-yl]amino}-5-methylphenyl)-1H-pyrazol-1-yl]methyl}-4-(hydroxymethyl)-1,3-oxazolidin-2-one], with at most 100 nM. For `Cc1cc(Nc2nccc(C(F)F)n2)cc(-c2cnn(CC3OC(=O)NC3CO)c2)c1` (single isomer, unassigned) [Example 33.4, 5-{[4-(3-{[4-(difluoromethyl)pyrimidin-2-yl]amino}-5-methylphenyl)-1H-pyrazol-1-yl]methyl}-4-(hydroxymethyl)-1,3-oxazolidin-2-one], under setting [1], the IC50 was at most 100 nM.
